Assay results: patent US10709784B2, “Metal chelating compositions and methods for controlling the growth or activities of a living cell or organism” (CHELATION PARTNERS INCORPORATED, priority 2011, dated 2020)
Where two headings read alike, the source gives them in different places. One block for each molecule: values may come before it.

Assays:
E. coli = test: MIC of chelators in Fe-restricted RPMI; assay type: cell-based, Escherichia coli
Method: (§1) Soluble chelating compositions prepared as in example 4 and example 6 as well as the commercially clinically used low molecular weight (<1500 Da) chelators desferal (Novartis Pharmaceutical Company) and deferiprone (Apotex Pharmaceutical Company) were tested as to their MICs against representative pathogenic bacterial species in RPMI medium that had been treated as in example 38 but to which Fe was re-added to known concentrations that permitted growth of the bacteria under partially Fe restrictive conditions, i.e., so as to simulate the low Fe environmental supply available during infection by these bacteria in man or other animals. MIC testing was done in a manner similar to that described for example 15 but with test series being conducted in multi-well microtiter plates, each well providing a separate treatment test.
(§2) The clinically used chelators were not inhibitory in the case of Pseudomonas aeruginosa with no inhibition observed at the highest concentration tested (300 μg/ml for desferal and 100 μg/ml for deferiprone). Staphylococcus aureus was not inhibited by desferal and was inhibited by deferiprone to a lesser extent than for the soluble compositions of the present invention. Conversely, Escherichia coli was not inhibited by deferiprone but was inhibited substantially by desferal.

P. aeruginosa = test: MIC of chelators in Fe-restricted RPMI; assay type: cell-based, Pseudomonas aeruginosa
Method: as §1, §2

S. aureus = test: MIC of chelators in Fe-restricted RPMI; assay type: cell-based; settings: Staphylococcus aureus
Method: as §1, §2

[1] = Overall Fe association constants; assay type: binding; settings: Fe (III)
Description: Measurement of the Fe binding strengths can be measured and compared for different chelating materials.

[2] = test system: Clinical isolates of Staphylococcus aureus; test: Growth inhibition of clinical isolates in MHB (turbidity 600 nm); assay type: cell-based; settings: over 7 mM Fe binding equivalents, overnight
Description: Clinical isolates of Staphylococcus aureus as obtained from human infections were obtained and are obtainable from the culture collection of Warren Grubb, Curtin University, Perth, Australia. It should be noted that the clinical isolates as obtained from patients at the Royal Perth Hospital in Perth Australia can be expected to have strong similarities to other clinical isolates of this bacterium as obtained elsewhere in the world as the genetic determinants of antibiotic resistance characteristics in Staphylococcus aureus are now generally understood. Thus, similar results to those shown in examples 14-17 can be expected with other clinical isolates as obtained elsewhere and having similar antibiotic resistance patterns to those tested for these examples. […]
A range of dilutions of the deferiprone or soluble chelating composition was prepared in MHB in test tubes so as to provide a range of added iron chelating capacity as measured in Fe binding equivalents. […] The tubes were incubated at an angle on a reciprocating shaker at 37° C. overnight and the growth results were scored as a percentage of growth based on measured turbidity at a wavelength of 600 nm with a spectrophotometer of the test sample, as compared to a control samples that had received no added deferiprone or soluble chelating composition. […]

[3] = test system: antibiotic resistant strains of Staphylococcus aureus; test: NCCLS MIC antibiotic sensitivity with added chelator; assay type: cell-based; settings: strain WBG525
Method: Sensitive or antibiotic resistant strains of Staphylococcus aureus (S. aureus) were grown on blood agar plates overnight at 37° C. Four to six individual colonies of each strain were harvested into Mueller-Hinton broth (MHB) and incubated at 37° C. until they reached an optical density equal to or exceeding a 0.5 McFarland standard. The culture was diluted with MHB to equal 0.5 McFarland standard. Dilutions (10^−1) of these standards were used for inocula. Various stains of antibiotic resistant Staphylococcus aureus were used for these tests as shown in the results below. It should be appreciated that growing the bacterial strains on blood agar and then in MHB ensured the inoculum was not restricted for iron prior to the test but rather the bacterial cells were with ample endogenous iron supply.
A range of two-fold dilutions of a test antibiotic was prepared in MHB. […] Soluble and insoluble chelating compositions, as prepared in Example 6 or Example 5, or the free iron chelating agent deferiprone were added to the antibiotic containing tubes at known concentrations of iron binding capacity (referred to as iron binding equivalents) to allow direct comparison of the different compositions or free chelator. The final volume per tube was 500 μl. Bacterial inoculum, 25 μl of the 10^−1 dilutions of the appropriate S. aureus strain was added to each tube. The tubes were incubated at an angle on a reciprocating shaker at 37° C. overnight and results were scored as growth based on turbidity or no growth (lack of turbidity). The Minimum Inhibitory Concentration (MIC) for the antibiotic was determined from the growth results.
A series of tests was set up as in Example 15 with various antibiotic anti-cellular agents. The clinically isolated strains were obtained from the culture collection of Warren Grubb, Curtin University, Perth, Australia.
A series of antibiotic sensitivity tests was set up as in example 16 utilizing the soluble chelating compositions as prepared in Example 6. Separate test series with different clinically isolated Staphylococcus aureus strains, as obtained from the culture collection of Warren Grubb, Curtin University, Perth, Australia, and various antibiotics were employed but for each series a control test comprising addition of iron sufficient to supply two times the chelating capacity of the supplied chelating composition was also included.

[4] = test system: Candida albicans ATCC 10231; test: Growth with chelating materials of different molecular weight, 84 hours; assay type: cell-based; settings: 30° C., defined medium without added iron, FIG. 8
Method: Candida albicans ATCC 10231 was tested for its sensitivities to: the medical chelator deferiprone (#1 in the graph of FIG. 8) (a product of Apotex Pharmaceuticals); the precursor chemicals used for the preparation of soluble chelating compositions of the present invention, including 3-hydroxy-2-methyl-4-pyrone (#2 in the graph of FIG. 8), AHMP as from Example 1 (#3 in the graph of FIG. 8) and MAHMP as from Example 2 (#4 in the graph of FIG. 8) and also the soluble chelating composition as from Example 4 (#5 in the graph of FIG. 8). The yeast was grown in defined medium as for Example 18 with no additional added iron (i.e., the only but adequate Fe available for the yeast was contributed from being present along with the other added medium components). Growth of the yeast in the defined media with added test chelating materials was compared to control samples that had not received any of the chelating materials following 84 hours of incubation and growth at 30° C. […] These chelators being internalized by the yeast were incapable of restricting iron supply to the yeast cells. […] Thus, low molecular weight chelators such as deferiprone and similar compounds permitted growth while the soluble chelating composition that contained functional groups similar to deferiprone but was a molecular weight higher than 1500 Daltons restricted growth, eventhough the various compounds tested were each capable of binding iron through their pyridinone functionality.

[5] = test system: Candida albicans ATCC 10231; test: Fluconazole MIC (80% growth inhibition) with soluble chelator; assay type: cell-based
Method: Candida albicans ATCC 10231, yeast cells, as grown in defined medium with no additional added Fe as in example 18, were tested in the same media for their sensitivities to fluconazole, an anti-cellular agent as proto-typical of the azole class of antibiotics that are commonly used to control fungal growth and pathogenesis in humans and with fluconazole plus the soluble chelating composition, as prepared in Example 4. Fluconazole as a typical member of the azole class of anti-fungal antibiotics that function by inhibiting sterol synthesis.

[6] = test system: Candida albicans ATCC 10231; test: Challenge growth test, fluconazole and chelator within a semi-permeable device; assay type: cell-based
Description: In one such culture, only medium was present as a control. […] The chelator was not added directly to the culture medium but was provided as within a dialysis membrane within the culture medium, such that only the external surfaces of the dialysis membrane device were in contact with the bulk of the culture medium, the chelator being within the membrane bag. The dialysis membrane was of the same type that had been used to prepare the soluble chelator and thus its use here ensured that the added chelator would be retained within the membrane device as in contact with the culture medium from within a semi-permeable membrane, i.e., the dialysis tubing. […] All four test cultures were inoculated with the yeast and growth was monitored at intervals in the test cultures by optical density measurement at 600 nm over a 120 hr test period.

[7] = test system: Candida albicans ATCC 10231; test: Preservative agent MIC (80% inhibition) challenge test with soluble chelator; assay type: cell-based
[8] = test system: Candida albicans ATCC 10231; test: Challenge growth test, sorbate and chelator within a semi-permeable device; assay type: cell-based; settings: sorbate […] with 0.3 mg soluble chelator (example 4) in the semi-permeable device
Description: In one such culture, only medium was present as a control. […] The chelator was not added directly to the culture medium but was provided as within a dialysis membrane within the culture medium, such that only the external surfaces of the dialysis membrane device were in contact with the bulk of the culture medium, the chelator being within the membrane bag. The dialysis membrane was of the same type that had been used to prepare the soluble chelator and thus its use here ensured that the added chelator would be retained within the membrane device as in contact with the culture medium from within a semi-permeable membrane, i.e., the dialysis tubing. Thus the chelator would not be in direct physical contact with the yeast cells while any iron or sorbate or other low molecular weight media constituents or low molecular weight yeast cell products in the test milieu could diffuse in or out of the semi-permeable device. In a fourth test, 0.3 mg soluble chelator within a similar dialysis bag was added but sorbate was not added to the medium. All four test cultures were inoculated with the yeast and growth was monitored at intervals in the test cultures by optical density measurement at 600 nm over a 120 hr test period.

[9] = Escherichia coli, treated RPMI with 0.02 μM Fe, read-out: MIC
[10] = Pseudomonas aeruginosa, treated RPMI with 0.02 μM Fe, read-out: MIC

SMILES: CC(=O)N(O)CCCCCNC(=O)CCC(=O)N(O)CCCCCNC(=O)CCC(=O)N(O)CCCCCN [DESFERAL, deferoxamine]
- MIC (E. coli; Escherichia coli, treated RPMI with 0.09 μM Fe): 0.59 µg/mL
- MIC (E. coli; [9]): 0.009 µg/mL
- MIC (P. aeruginosa; [10]): > 300 µg/mL
- MIC (P. aeruginosa; treated RPMI with 0.09 μM Fe): >300 µg/mL
- MIC (S. aureus; treated RPMI with 0.02 μM Fe): > 300 µg/mL
- MIC (S. aureus; treated RPMI with 0.09 μM Fe): > 300 µg/mL

- MIC Streptomycin ([3]; chelator added 7.4 mM Fe binding equivalents, * slight growth <5% of control turbidity at 640 μg/ml): >640* μg/ml
- MIC (E. coli; [9]): > 100 µg/mL
- MIC (E. coli; treated RPMI with 0.09 μM Fe): >100 µg/mL
- MIC (P. aeruginosa; [10]): > 100 µg/mL
- MIC (P. aeruginosa; treated RPMI with 0.09 μM Fe): >100 µg/mL
- MIC (S. aureus; treated RPMI with 0.02 μM Fe): 12.5 µg/mL
- MIC (S. aureus; treated RPMI with 0.09 μM Fe): 25 µg/mL
SMILES: Cc1c(O)c(=O)ccn1C [Deferiprone, 1,2-dimethyl-3-hydroxy-pyridin-4-one]
- Log 10 K(assoc) [1]: 36
- inhibition of growth [2]: about 15%
- growth at 640 μg/ml streptomycin ([3]; chelator added 15 mM Fe binding equivalents): still allowed slight growth
- growth of the yeast compared to control [4]: did not substantially restrict growth

- MIC ([5]; ATCC10231, 96 h, Fluconazole alone, 4 d): > 6 µg/mL
- MIC ([5]; ATCC10231, 96 h, plus 25 μg/ml soluble chelator (example 4), 4 d): < 0.05 µg/mL
- MIC ([5]; ATCC10231, 96 h, plus Fe-saturated soluble chelator, 4 d): > 6 µg/mL
- MIC ([5]; ATCC10231, 96 h, plus […] soluble chelator (Example 4), 4 d): < 0.05 µg/mL
- MIC ([5]; ATCC10231, 240 h, Fluconazole alone, 10 d): > 6 µg/mL
- MIC ([5]; ATCC10231, 240 h, plus 25 μg/ml soluble chelator (example 4), 10 d): < 0.05 µg/mL
- MIC ([5]; ATCC10231, 240 h, plus Fe-saturated soluble chelator, 10 d): > 6 µg/mL
- MIC ([5]; ATCC10231, 240 h, plus […] soluble chelator (Example 4), 10 d): 0.05 µg/mL
- MIC ([5]; ATCC10231, Fluconazole alone, 42 d): > 6 µg/mL
- MIC ([5]; ATCC10231, plus 25 μg/ml Soluble chelator (Example 4), 42 d): < 0.05 µg/mL
- MIC ([5]; ATCC10231, plus Fe-saturated soluble chelator, 42 d): > 6 µg/mL
- MIC ([5]; ATCC10231, plus […] soluble chelator (Example 4), 42 d): 0.19 µg/mL
SMILES: OC(Cn1cncn1)(Cn1cncn1)c1ccc(F)cc1F [Fluconazole]
- yeast growth (OD 600 nm over 120 hr) ([6]; fluconazole 0.083 μg/ml alone): only delayed and partially restricted yeast growth
- yeast growth (OD 600 nm over 120 hr) ([6]; fluconazole 0.083 μg/ml with 0.3 mg soluble chelator (example 4) in the semi-permeable device): prevented growth completely

SMILES: C/C=C/C=C/C(=O)[O-].[K+] [Sorbate, potassium sorbate]
- MIC ([7]; ATCC10231, 48 h, read-out: Sorbate or Paraben MIC, plus soluble chelating composition (Example 4) 25 μg/ml, 2 days): < 20 µg/mL
- MIC ([7]; ATCC10231, 48 h, read-out: Sorbate or Paraben MIC, plus soluble chelating composition (Example 4) […], 2 days): < 20 µg/mL
- MIC ([7]; ATCC10231, 48 h, read-out: Sorbate or Paraben MIC, preservative alone, 2 days): 120 µg/mL
- MIC ([7]; ATCC10231, 240 h, read-out: Sorbate or Paraben MIC, plus soluble chelating composition (Example 4) 25 μg/ml, 10 days): 30 µg/mL
- MIC ([7]; ATCC10231, 240 h, read-out: Sorbate or Paraben MIC, plus soluble chelating composition (Example 4) […], 10 days): < 20 µg/mL
- MIC ([7]; ATCC10231, 240 h, read-out: Sorbate or Paraben MIC, preservative alone, 10 days): 250 µg/mL
- yeast growth (OD 600 nm over 120 hr) [8]: prevented growth completely
